{"source": "ChEMBL document CHEMBL1687904", "about": "“Pestaloquinols A and B, isoprenylated epoxyquinols from Pestalotiopsis sp” (J Nat Prod, 2011)", "tested_on": "HeLa", "test": "Cytotoxicity against human HeLa cells after 48 hrs by MTT assay", "assay_type": "functional, cell-based", "data": [{"smiles": "CCCCC[C@@H]1O[C@@H]2C3=C(C(=O)[C@@H]4O[C@@]45C[C@H](O)C(C)(C)O[C@H]35)[C@H]1[C@H]1[C@H](CCCCC)OC=C3[C@@H]4OC(C)(C)[C@@H](O)C[C@@]45O[C@H]5C(=O)[C@@]312", "note": "[PESTALOQUINOL B]", "values": [{"measurement": "IC50", "result": 880, "unit": "nM"}]}, {"smiles": "CCCCC[C@@H]1OC=C2[C@@H]3OC(C)(C)[C@@H](O)C[C@@]34O[C@H]4C(=O)[C@]23[C@H]1[C@H]1C2=C([C@H]4OC(C)(C)[C@@H](O)C[C@@]45O[C@H]5C2=O)[C@@H]3O[C@@H]1CCCCC", "note": "[PESTALOQUINOL A]", "values": [{"measurement": "IC50", "result": 1630, "unit": "nM"}]}]}
